According to article PMC8236452, “Pharmacokinetics and safety of rucaparib in patients with advanced solid tumors and hepatic impairment” (Cancer Chemotherapy and Pharmacology, 2021):

Assays:
[1] = ref unpublished results; cited from earlier work
[2] = Urine pharmacokinetics (Ae0–24, CLR) after a single oral dose of rucaparib 600 mg in patients with advanced solid tumors; format: in vivo, human; conditions: single oral rucaparib 600 mg; for Ae0–24, GM / Ae0–24, Mean (SD) / Ae0–24, Median (min–max): urine
Text: Stable deuterium-labeled analytes were used as internal standards.
PK parameters were estimated from the concentration–time profiles.

PARP [3] = tested on: PARP; design: method as in earlier work; conditions: cited from earlier work
[4] = human, in vivo
Experimental: (§1) In Part 1, patients received a single oral dose of rucaparib 600 mg on day 1; PK samples were collected and safety monitored through day 7.
(§2) Sample collection, processing, and shipping were conducted according to standardized protocols shared across study sites. Plasma samples were collected for PK analysis at the predose assessment and at 1, 2, 3, 4, 8, 12, 24, 48, 72, 96, 120, and 144 h postdose. A predose urine sample was collected less than 12 h prior to study drug administration. Total urine was collected 0–12 h and 12–24 h postdose. Total (bound and unbound) concentrations of rucaparib and its metabolite M324 in plasma and urine samples were determined by Q Squared Solutions BioSciences (Ithaca, NY, USA) using validated liquid chromatography mass spectrometry/mass spectrometry methods. Stable deuterium-labeled analytes were used as internal standards. The assay calibration ranges for plasma samples were 5–10,000 ng/mL for rucaparib and 1–1000 ng/mL for M324 with lower limits of quantification (LLOQ) of 5.00 and 1.00 ng/mL, respectively. For urine samples, the calibration range was 500–50,000 ng/mL for both rucaparib and M324, with a LLOQ of 500 ng/mL for both analytes. The precision was within 9.3% CV, and the accuracy was within ± 6.2%.
(§3) PK parameters were estimated from the concentration–time profiles. Actual elapsed time after dosing was used to estimate plasma PK parameters based on noncompartmental methods using Phoenix® WinNonlin® version 8.1.0 (Certara USA, Inc., Princeton, NJ, USA). […] Exploratory PK parameters for M324 calculated based on plasma and urine concentration-time data were Cmax, AUC0–last, AUC0–inf, t1/2, tmax, Ae0–24, and CLR, as data allowed.
(§4) PK parameters were calculated by noncompartmental analysis, analyzed using descriptive statistics, and presented by hepatic functional status. Analysis of variance (ANOVA) was used to compare PK parameters (e.g., Cmax, AUC0–last, and AUC0–inf) between the normal hepatic function group and the moderate hepatic impairment group per NCI-ODWG criteria. PK values were log-transformed before analysis. Baseline covariates (e.g., creatinine clearance [CLcr], sex, age, BMI, and ECOG PS) were tested for any significant effect (P value < 0.05). Geometric least-squares means were used to calculate the ratios of the PK parameters in the hepatic impairment group to those in the control group, along with 90% confidence intervals (CIs). The Wilcoxon rank-sum test was used to compare tmax values between the two groups, and estimates of the median differences were determined, along with 90% CIs. In addition, the relationships between log-transformed PK parameters (AUC0–last, AUC0–inf, Cmax) for rucaparib and M324 and hepatic function parameters (bilirubin and aspartate aminotransferase [AST]) relevant to the classification of hepatic impairment according to NCI-ODWG were explored by a linear regression approach.

PARP [5] = conditions: cited from earlier work
[6] = Plasma pharmacokinetics after a single oral dose of rucaparib 600 mg in patients with advanced solid tumors, by hepatic function group; conditions: for AUC0–last, Geometric LS means / Cmax, Geometric LS means: ANOVA; for AUC0–inf, GM / AUC0–inf, Mean (SD) / AUC0–inf, Median (min–max) / AUC0–last, GM / AUC0–last, Mean (SD) / AUC0–last, Median (min–max) / Cmax, GM / Cmax, Mean (SD) / Cmax, Median (min–max) / tmax, Median (min–max): single oral rucaparib 600 mg
Experimental: as §1, §2, §3, §4

[7] = cited from earlier work
[8] = Child–Pugh mild hepatic impairment
[9] = Child–Pugh moderate hepatic impairment
[10] = Child–Pugh severe hepatic impairment
[11] = NCI-ODWG moderate hepatic impairment
[12] = NCI-ODWG normal hepatic function
[13] = NCI-ODWG moderate hepatic impairment (n = 8)
[14] = NCI-ODWG normal hepatic function (n = 8)
[15] = linear regression of log-transformed PK parameter on hepatic function parameter (NCI-ODWG)

O=C(O)c1ccc(-c2[nH]c3cc(F)cc4c3c2CCNC4=O)cc1 [M324]
plasma protein binding [1]: 91% | CLR, GM [2, 8]: 119 mL/min | CLR, Mean (SD) [2, 8]: 121 (26.2) mL/min | CLR, Median (min–max) [2, 8]: 114 (94.7–161) mL/min | CLR, GM [2, 9]: 68.5 mL/min | CLR, Mean (SD) [2, 9]: 90.5 (55.6) mL/min | CLR, Median (min–max) [2, 9]: 104 (12.7–163) mL/min | CLR, GM [2, 10]: 24.8 mL/min | CLR, Mean (SD) [2, 10]: 39.3 (43.1) mL/min | CLR, Median (min–max) [2, 10]: 39.3 (8.84–69.8) mL/min | CLR, GM [2, 11]: 47.7 mL/min | CLR, Mean (SD) [2, 11]: 72.7 (57.6) mL/min | CLR, Median (min–max) [2, 11]: 69.8 (8.84–163) mL/min | CLR, GM [2, 12]: 118 mL/min | CLR, Mean (SD) [2, 12]: 120 (24.0) mL/min | CLR, Median (min–max) [2, 12]: 113 (96.7–161) mL/min | Ae0–24, GM [2, 8]: 13.1 mg | Ae0–24, Mean (SD) [2, 8]: 16.1 (11.9) mg | Ae0–24, Median (min–max) [2, 8]: 14.5 (4.77–40.9) mg | Ae0–24, GM [2, 9]: 4.33 mg | Ae0–24, Mean (SD) [2, 9]: 5.44 (4.06) mg | Ae0–24, Median (min–max) [2, 9]: 4.29 (1.46–12.8) mg | Ae0–24, GM [2, 10]: 1.37 mg | Ae0–24, Mean (SD) [2, 10]: 1.38 (0.193) mg | Ae0–24, Median (min–max) [2, 10]: 1.38 (1.24–1.51) mg | Ae0–24, GM [2, 11]: 3.61 mg | Ae0–24, Mean (SD) [2, 11]: 5.46 (4.96) mg | Ae0–24, Median (min–max) [2, 11]: 2.88 (1.24–12.8) mg | Ae0–24, GM [2, 12]: 10.0 mg | Ae0–24, Mean (SD) [2, 12]: 13.7 (12.3) mg | Ae0–24, Median (min–max) [2, 12]: 10.9 (3.47–40.9) mg | activity in in vitro target binding affinity and cytotoxicity assay (PARP [3]): inactive | AUC0–last, Geometric mean ratio Moderate/normal (90% CI) [4]: 1.483 (0.766–2.868) | Cmax, Geometric mean ratio Moderate/normal (90% CI) [4]: 1.055 (0.529–2.105) | biological activity, in vitro PARP inhibition data (PARP [5]): not biologically active | AUC0–last, Geometric LS means [6, 13]: 5930 h⋅ng/mL | Cmax, Geometric LS means [6, 13]: 76.7 ng/mL | AUC0–last, Geometric LS means [6, 14]: 4000 h⋅ng/mL | Cmax, Geometric LS means [6, 14]: 72.7 ng/mL | AUC0–inf, GM [6, 8]: 5590 h⋅ng/mL | AUC0–inf, Mean (SD) [6, 8]: 5800 (1720) h⋅ng/mL | AUC0–inf, Median (min–max) [6, 8]: 5700 (3960–8340) h⋅ng/mL | AUC0–last, GM [6, 8]: 4740 h⋅ng/mL | AUC0–last, Mean (SD) [6, 8]: 5070 (1910) h⋅ng/mL | AUC0–last, Median (min–max) [6, 8]: 5130 (2330–7890) h⋅ng/mL | Cmax, GM [6, 8]: 97.9 ng/mL | Cmax, Mean (SD) [6, 8]: 111 (62.9) ng/mL | Cmax, Median (min–max) [6, 8]: 98.7 (42.7–235) ng/mL | tmax, Median (min–max) [6, 8]: 4.00 (3.00–24.0) h | AUC0–inf, GM [6, 9]: 3580 h⋅ng/mL | AUC0–inf, Mean (SD) [6, 9]: 3840 (1590) h⋅ng/mL | AUC0–inf, Median (min–max) [6, 9]: 4190 (2100–5230) h⋅ng/mL | AUC0–last, GM [6, 9]: 4550 h⋅ng/mL | AUC0–last, Mean (SD) [6, 9]: 5690 (4710) h⋅ng/mL | AUC0–last, Median (min–max) [6, 9]: 3810 (1930–15,600) h⋅ng/mL | Cmax, GM [6, 9]: 57.4 ng/mL | Cmax, Mean (SD) [6, 9]: 64.1 (33.1) ng/mL | Cmax, Median (min–max) [6, 9]: 50.9 (28.9–118) ng/mL | tmax, Median (min–max) [6, 9]: 23.9 (4.03–72.0) h | AUC0–last, GM [6, 10]: 6840 h⋅ng/mL | AUC0–last, Mean (SD) [6, 10]: 15,900 (20,200) h⋅ng/mL | AUC0–last, Median (min–max) [6, 10]: 15,900 (1550–30,200) h⋅ng/mL | Cmax, GM [6, 10]: 72.5 ng/mL | Cmax, Mean (SD) [6, 10]: 164 (208) ng/mL | Cmax, Median (min–max) [6, 10]: 164 (16.9–311) ng/mL | tmax, Median (min–max) [6, 10]: 73.5 (2.97–144) h | AUC0–inf, GM [6, 11]: 4960 h⋅ng/mL | AUC0–inf, Mean (SD) [6, 11]: 4990 (720) h⋅ng/mL | AUC0–inf, Median (min–max) [6, 11]: 5230 (4190–5570) h⋅ng/mL | AUC0–last, GM [6, 11]: 5930 h⋅ng/mL | AUC0–last, Mean (SD) [6, 11]: 8940 (9600) h⋅ng/mL | AUC0–last, Median (min–max) [6, 11]: 4760 (1550–30,200) h⋅ng/mL | Cmax, GM [6, 11]: 76.7 ng/mL | Cmax, Mean (SD) [6, 11]: 105 (91.8) ng/mL | Cmax, Median (min–max) [6, 11]: 83.7 (16.9–311) ng/mL | tmax, Median (min–max) [6, 11]: 30.0 (2.97–144) h | AUC0–inf, GM [6, 12]: 4750 h⋅ng/mL | AUC0–inf, Mean (SD) [6, 12]: 5220 (2300) h⋅ng/mL | AUC0–inf, Median (min–max) [6, 12]: 4930 (2100–8340) h⋅ng/mL | AUC0–last, GM [6, 12]: 4000 h⋅ng/mL | AUC0–last, Mean (SD) [6, 12]: 4450 (2130) h⋅ng/mL | AUC0–last, Median (min–max) [6, 12]: 3810 (1930–7890) h⋅ng/mL | Cmax, GM [6, 12]: 72.7 ng/mL | Cmax, Mean (SD) [6, 12]: 90.1 (67.4) ng/mL | Cmax, Median (min–max) [6, 12]: 74.5 (28.9–235) ng/mL | tmax, Median (min–max) [6, 12]: 10.1 (3.00–24.0) h | Slope estimate (90% CI), AUC0-last vs AST [6, 15]: 0.001 (–0.001 to 0.004) | Slope estimate (90% CI), AUC0-last vs Bilirubin [6, 15]: –0.004 (–0.018 to 0.011) | Slope estimate (90% CI), Cmax vs AST [6, 15]: 0 (–0.002 to 0.003) | Slope estimate (90% CI), Cmax vs Bilirubin [6, 15]: –0.007 (–0.022 to 0.007) | formation of M324, share of total clearance of rucaparib [7]: ~ 1/3
